In data set [1] the test system is PC3-DR cells. As to the kind of experiment: cells. To be noted: Homo sapiens, 48 h.
Protocol: (§2) Viability was evaluated using MTT assay, and IC50s were calculated using GraphPad Prism software. Number of biological replicates n = 3. […] Cells (6 × 10^3 cells/well in 100 μL/well of media) were plated in 96-well plates. The plates were incubated overnight, and the medium was replaced with fresh medium containing drugs at the indicated concentrations. The plates were further incubated for 48 h, unless otherwise stated, the solution of MTT reagent in PBS was added to each well, and cells were incubated for another 2–4 h to form formazan crystals. Then the media was removed and the plates were dried overnight. 50 μL of DMSO was added to each well to dissolve the formazan crystals. The absorbance of each well was measured using an Infinite F200PRO reader (TECAN, Männedorf, Switzerland). The cell viability was estimated as an inhibition concentration (IC50), which was calculated using GraphPad Prism software v.9.1.1 (GraphPad Software, San Diego, CA, USA). IC₅₀ values were determined by fitting the data to a nonlinear regression model (log[inhibitor] versus normalized response—variable slope).
In data set [2] the test system is PC3-DR cells. As to conditions: TQD 50 nM.
Protocol: as §2
In the next data set the test system is PNT2 cells. As to the kind of experiment: MTT cytotoxicity assay. Type of data set: cell-based, human. To be noted: Homo sapiens; PNT2, 48 h, mean ± SD. From the text: (§1) The cell lines were purchased from ATCC (Manassas, VA, USA) or ECACC (Salisbury, UK). The following cell lines were used: Human prostate cancer cells LNCaP (ATCC; RRID:CVCL_0395), VCaP (ECACC; RRID:CVCL_2235), 22Rv1 (ATCC; RRID:CVCL_1045), PC3 (ATCC; RRID:CVCL_0035), and DU145 (ATCC; RRID:CVCL_0105); human prostate non-cancer cells PNT2 (ATCC; RRID:CVCL_2164) and RWPE-01 (ATCC; RRID:CVCL_3791). Human non-cancer embryonic kidney cells HEK293T (ECACC; RRID:CVCL_0063) and human fibroblast cells MRC-9 (ECACC; RRID:CVCL_2629). The docetaxel-resistant cells PC3-DR were generated by long-term treatment of human prostate cancer PC3 cells with sublethal concentrations of docetaxel as previously described[32] and were provided by Prof. Z. Culig (Innsbruck Medical University, Austria). All cell lines were recently authenticated by a commercial service (Multiplexion GmbH, Heidelberg, Germany) and were cultured as previously described[58],[59]. Cells were kept in culture for a maximum of three months and were routinely examined for bacterial, fungal, and mycoplasma infections.
(In general: Tetrazolium assays rely on reduction of a dye to a coloured formazan, in cell work by metabolically active cells.)

The next data set relates to HEK293T cells. The experiment in a line: MTT cytotoxicity assay. It counts as cell-based, human. To be noted: Homo sapiens, HEK-293T, 48 h, mean ± SD.
Text: as §1

The subject of data set [3] is PC3-DR cells. As to the kind of experiment: MTT cytotoxicity assay. To be noted: Homo sapiens, 48 h, mean ± SD. Type of data set: cell-based, human.
Text: as §1

A further data set has as its system PC3 cells. The experiment in a line: MTT cytotoxicity assay. Type of data set: cell-based, human. To be noted: Homo sapiens, PC-3; PC3, 48 h, mean ± SD.
Text: as §1

Another data set concerns LNCaP cells. The experiment in a line: MTT cytotoxicity assay. Type of data set: cell-based, human. As to conditions: Homo sapiens, 48 h, mean ± SD.
Text: as §1

In another data set the test system is VCaP cells. As to the kind of experiment: MTT cytotoxicity assay. Type of data set: cell-based, human. As to conditions: Homo sapiens, 48 h, mean ± SD.
Text: as §1

Another data set relates to DU145 cells. As to the kind of experiment: MTT cytotoxicity assay. It counts as cell-based, human. To be noted: Homo sapiens, DU-145; DU145, 48 h, mean ± SD.
Text: as §1

The test system of a further data set is 22Rv1 cells. The experiment in a line: MTT cytotoxicity assay. It counts as cell-based, human. As to conditions: Homo sapiens; 22Rv1, 48 h, mean ± SD.
Text: as §1

In the next data set the test system is MRC-9 cells. The experiment in a line: MTT cytotoxicity assay. It counts as cell-based, human. To be noted: Homo sapiens, MRC9; MRC-9, 48 h, mean ± SD.
Text: as §1

Another data set relates to RWPE-1 cells. The experiment in a line: MTT cytotoxicity assay. It counts as cell-based, human. As to conditions: Homo sapiens; RWPE-1, 48 h, mean ± SD.
Text: as §1

The term IC50 denotes the concentration that gives 50% inhibition. As for `CO[C@@H]1[C@@H](O)[C@H](O[C@@H]2[C@@H](O)[C@H](O[C@H]3[C@H](O)[C@@H](O[C@@H]4OC[C@@H](O)[C@H](O)[C@H]4O)[C@H](O[C@H]4[C@H](O[C@H]5CC[C@]6(C)[C@@H]7CCC89C(=O)O[C@@](C)(/C=C\C=C(C)C)[C@H]8[C@@H](OC(C)=O)C[C@@]9(C)C7=CC[C@H]6C5(C)C)OC[C@@H](O)[C@@H]4O)O[C@@H]3C)O[C@H](CO)[C@H]2O)OC[C@H]1O` (stereo partly drawn) [CuC1, cucumarioside C1], the IC50 in the data set on PC3-DR cells [1] came out at 5.69 ± 0.33 µM; in the data set on PNT2 cells, 0.754 ± 0.058 µM; in the data set with HEK293T cells, 0.66 ± 0.05 µM; in the data set on PC3-DR cells [3], 5.69 ± 0.78 µM; in the data set on PC3 cells it was 1.59 ± 0.12 µM; in the data set with LNCaP cells, 3 ± 0.54 µM. In addition, the IC50 in the data set on VCaP cells stood at 0.472 ± 0.065 µM; with DU145 cells it was 3.24 ± 0.34 µM; with 22Rv1 cells, 0.246 ± 0.017 µM; with MRC-9 cells, 0.959 ± 0.248 µM; in the data set on RWPE-1 cells, 0.554 ± 0.105 µM. Further, the “effect of co-treatment with tariquidar on cytotoxicity” value in the data set with PC3-DR cells [2] is given as “did not alter cytotoxicity”.
